Key:
[1] = target: c-Met kinase domain recombinant protein (Homo sapiens, UniProt P08581); assay: ELISA kinase activity assay, c-Met
[2] = target: T1, Axl kinase domain recombinant protein (Homo sapiens, UniProt P30530); assay: ELISA kinase activity assay, Axl
T1 sequence (P30530 536-807 limits assumed): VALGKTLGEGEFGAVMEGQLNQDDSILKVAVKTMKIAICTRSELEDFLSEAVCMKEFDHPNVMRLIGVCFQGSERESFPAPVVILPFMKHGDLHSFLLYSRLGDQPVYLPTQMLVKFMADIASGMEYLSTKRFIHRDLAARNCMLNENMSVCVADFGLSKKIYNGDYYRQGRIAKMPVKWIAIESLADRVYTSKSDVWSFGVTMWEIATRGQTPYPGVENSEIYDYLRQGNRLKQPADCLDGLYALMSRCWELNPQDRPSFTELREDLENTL

Chain of c-Met kinase domain recombinant protein (P08581 1078-1345 limits assumed): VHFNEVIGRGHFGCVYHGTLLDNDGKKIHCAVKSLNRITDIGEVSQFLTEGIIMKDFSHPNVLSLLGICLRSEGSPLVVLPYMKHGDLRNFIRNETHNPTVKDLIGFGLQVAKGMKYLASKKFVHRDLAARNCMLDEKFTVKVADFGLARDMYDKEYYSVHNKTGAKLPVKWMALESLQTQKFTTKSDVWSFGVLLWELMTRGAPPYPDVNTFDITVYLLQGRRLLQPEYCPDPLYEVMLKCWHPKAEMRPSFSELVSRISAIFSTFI

Q: How did the IC50 [1] turn out when `Cn1cc(-c2cc(Oc3ccc(NC(=O)c4cn(C)c(=O)n(-c5ccc(F)cc5)c4=O)cc3F)ccn2)cn1` [No. 1, N-(3-fluoro-4-((2-(1-methyl-1H-pyrazol-4-yl)pyridin-4-yl)oxy)phenyl)-3-(4-fluorophenyl)-1-methyl-2,4-dioxo-1,2,3,4-tetrahydropyrimidin-5-carboxamide] was run?
A: The IC50 was under 10 nM.

Q: And the IC50 [2]?
A: Its IC50 is under 10 nM.

Q: Which IC50 [1] does the source give for `CCn1cc(C(=O)Nc2ccc(Oc3ccnc(-c4cnn(C)c4)c3)c(F)c2)c(=O)n(-c2ccc(F)cc2)c1=O` [No. 2, 1-ethyl-N-(3-fluoro-4-((2-(1-methyl-1H-pyrazol-4-yl)pyridin-4-yl)oxy)phenyl)-3-(4-fluorophenyl)-2,4-dioxo-1,2,3,4-tetrahydropyrimidin-5-formamide] here?
A: Its IC50 is under 10 nM.

Q: What about the IC50 [2] of the same compound?
A: Its IC50 is under 10 nM.

Q: With `CC(C)n1cc(C(=O)Nc2ccc(Oc3ccnc(-c4cnn(C)c4)c3)c(F)c2)c(=O)n(-c2ccc(F)cc2)c1=O` [No. 3, N-(3-fluoro-4-((2-(1-methyl-1H-pyrazol-4-yl)pyridin-4-yl)oxy)phenyl)-3-(4-fluorophenyl)-1-isopropyl-2,4-dioxo-1,2,3,4-tetrahydropyrimidin-5-carboxamide] as the compound, how does the IC50 [1] read?
A: Its IC50 is under 10 nM.

Q: With `CCCn1cc(C(=O)Nc2ccc(Oc3ccnc(-c4cnn(C)c4)c3)c(F)c2)c(=O)n(-c2ccc(F)cc2)c1=O` [No. 4, N-(3-fluoro-4-((2-(1-methyl-1H-pyrazol-4-yl)pyridin-4-yl)oxy)phenyl)-3-(4-fluorophenyl)-1-propyl-2,4-dioxo-1,2,3,4-tetrahydropyrimidin-5-carboxamide] as the compound, how does the IC50 [1] read?
A: Its IC50 is under 10 nM.

Q: And the IC50 [2]?
A: Its IC50 is under 10 nM.

Q: What does the source list for `Cn1cc(-c2cc(Oc3ccc(NC(=O)c4cn(CC5CC5)c(=O)n(-c5ccc(F)cc5)c4=O)cc3F)ccn2)cn1` [No. 5, 1-(cyclopropylmethyl)-N-(3-fluoro-4-((2-(1-methyl-1H-pyrazol-4-yl)pyridin-4-yl)oxy)phenyl)-3-(4-fluorophenyl)-2,4-dioxo-1,2,3,4-tetrahydropyrimidin-5-carboxamide]?
A: IC50 [1]: < 10 nM; IC50 [2]: < 10 nM

Q: `Cn1cc(-c2cc(Oc3ccc(NC(=O)c4cn(CC5CCCC5)c(=O)n(-c5ccc(F)cc5)c4=O)cc3F)ccn2)cn1` [No. 6, 1-(cyclopentylmethyl)-N-(3-fluoro-4-((2-(1-methyl-1H-pyrazol-4-yl)pyridin-4-yl)oxy)phenyl)-3-(4-fluorophenyl)-2,4-dioxo-1,2,3,4-tetrahydropyrimidin-5-carboxamide] was tested. Which IC50 [1] did it give?
A: The IC50 was 10 to 100 nM.

Q: What about the IC50 [2] of the same compound?
A: Its IC50 is 10 to 100 nM.

Q: How did the IC50 [1] turn out when `C=CCn1cc(C(=O)Nc2ccc(Oc3ccnc(-c4cnn(C)c4)c3)c(F)c2)c(=O)n(-c2ccc(F)cc2)c1=O` [No. 7, 1-allyl-N-(3-fluoro-4-((2-(1-methyl-1H-pyrazol-4-yl)pyridin-4-yl)oxy)phenyl)-3-(4-fluorophenyl)-2,4-dioxo-1,2,3,4-tetrahydropyrimidin-5-carboxamide] was run?
A: The IC50 was under 10 nM.

Q: What about the IC50 [2] of the same compound?
A: The IC50 was under 10 nM.

Q: Which IC50 [1] does the source give for `C#CCn1cc(C(=O)Nc2ccc(Oc3ccnc(-c4cnn(C)c4)c3)c(F)c2)c(=O)n(-c2ccc(F)cc2)c1=O` [No. 8, N-(3-fluoro-4-((2-(1-methyl-1H-pyrazol-4-yl)pyridin-4-yl)oxy)phenyl)-3-(4-fluorophenyl)-2,4-dioxo-1-propargyl-1,2,3,4-tetrahydropyrimidin-5-carboxamide] here?
A: Its IC50 is 10 to 100 nM.

Q: What about the IC50 [2] of the same compound?
A: Its IC50 is 10 to 100 nM.

Q: Which IC50 [1] does the source give for `Cn1cc(-c2cc(Oc3ccc(NC(=O)c4cn(CCO)c(=O)n(-c5ccc(F)cc5)c4=O)cc3F)ccn2)cn1` [No. 9, N-(3-fluoro-4-((2-(1-methyl-1H-pyrazol-4-yl)pyridin-4-yl)oxy)phenyl)-3-(4-fluorophenyl)-1-(2-hydroxyethyl)-2,4-dioxo-1,2,3,4-tetrahydropyrimidin-5-carboxamide] here?
A: Its IC50 is 10 to 100 nM.

Q: What about the IC50 [2] of the same compound?
A: The IC50 was over 100 nM.

Q: Which IC50 [1] does the source give for `CC(C)n1cc(C(=O)Nc2ccc(Oc3ccnc(-c4cnn(C)c4)c3)cc2)c(=O)n(-c2ccc(F)cc2)c1=O` [No. 25, 3-(4-fluorophenyl)-1-isopropyl-N-(4-((2-(1-methyl-1H-pyrazol-4-yl)pyridin-4-yl)oxy)phenyl)-2,4-dioxo-1,2,3,4-tetrahydropyrimidin-5-carboxamide] here?
A: The IC50 was under 10 nM.

Q: Which IC50 [1] does the source give for `CC(C)n1cc(C(=O)Nc2ccc(Oc3ccnc(-c4cnn(C)c4)c3)cc2F)c(=O)n(-c2ccc(F)cc2)c1=O` [No. 26, N-(2-fluoro-4-((2-(1-methyl-1H-pyrazol-4-yl)pyridin-4-yl)oxy)phenyl)-3-(4-fluorophenyl)-1-isopropyl-2,4-dioxo-1,2,3,4-tetrahydropyrimidin-5-carboxamide] here?
A: The IC50 was under 10 nM.

Q: How did the IC50 [1] turn out when `CC(C)n1cc(C(=O)Nc2ccc(Oc3ccnc(-c4cnn(C)c4)c3)c(F)c2F)c(=O)n(-c2ccc(F)cc2)c1=O` [No. 27, N-(2,3-difluoro-4-((2-(1-methyl-1H-pyrazol-4-yl)pyridin-4-yl)oxy)phenyl)-3-(4-fluorophenyl)-1-isopropyl-2,4-dioxo-1,2,3,4-tetrahydropyrimidin-5-carboxamide] was run?
A: Its IC50 is 10 to 100 nM.

Q: For `CC(C)n1cc(C(=O)Nc2cc(F)c(Oc3ccnc(-c4cnn(C)c4)c3)c(F)c2)c(=O)n(-c2ccc(F)cc2)c1=O` [No. 28, N-(3,5-difluoro-4-((2-(1-methyl-1H-pyrazol-4-yl)pyridin-4-yl)oxy)phenyl)-3-(4-fluorophenyl)-1-isopropyl-2,4-dioxo-1,2,3,4-tetrahydropyrimidin-5-carboxamide], which IC50 [1] is on record?
A: Its IC50 is under 10 nM.

Q: How did the IC50 [1] turn out when `CC(C)n1cc(C(=O)Nc2cc(F)c(Oc3ccnc(-c4cnn(C)c4)c3)cc2F)c(=O)n(-c2ccc(F)cc2)c1=O` [No. 29, N-(2,5-difluoro-4-((2-(1-methyl-1H-pyrazol-4-yl)pyridin-4-yl)oxy)phenyl)-3-(4-fluorophenyl)-1-isopropyl-2,4-dioxo-1,2,3,4-tetrahydropyrimidin-5-carboxamide] was run?
A: The IC50 was under 10 nM.

Q: Which IC50 [1] does the source give for `CC(C)n1cc(C(=O)Nc2ccc(Oc3ccnc(-c4cn[nH]c4)c3)c(F)c2)c(=O)n(-c2ccc(F)cc2)c1=O` [No. 31, N-(4-((2-(1H-pyrazol-4-yl)pyridin-4-yl)oxy)-3-fluorophenyl)-3-(4-fluorophenyl)-1-isopropyl-2,4-dioxo-1,2,3,4-tetrahydropyrimidin-5-carboxamide] here?
A: The IC50 was 10 to 100 nM.

Q: `CC(C)n1cc(C(=O)Nc2ccc(Oc3ccnc(-c4cnn(CC(C)(C)O)c4)c3)c(F)c2)c(=O)n(-c2ccc(F)cc2)c1=O` [No. 32, N-(3-fluoro-4-((2-(1-(2-hydroxy-2-methylpropyl)-1H-pyrazol-4-yl)pyridin-4-yl)oxy)phenyl)-3-(4-fluorophenyl)-1-isopropyl-2,4-dioxo-1,2,3,4-tetrahydropyrimidin-5-carboxamide] was tested. Which IC50 [1] did it give?
A: The IC50 was 10 to 100 nM.

Q: Which IC50 [1] does the source give for `CC(C)n1cc(C(=O)Nc2ccc(Oc3ccnc(-c4cnn(C5CC5)c4)c3)c(F)c2)c(=O)n(-c2ccc(F)cc2)c1=O` [No. 33, N-(4-((2-(1-cyclopropyl-1H-pyrazol-4-yl)pyridin-4-yl)oxy)-3-fluorophenyl)-3-(4-fluorophenyl)-1-isopropyl-2,4-dioxo-1,2,3,4-tetrahydropyrimidin-5-carboxamide] here?
A: The IC50 was 10 to 100 nM.

Q: Which IC50 [1] does the source give for `CC(C)n1cc(C(=O)Nc2ccc(Oc3ccnc(-c4cnn(CCN5CCN(C)CC5)c4)c3)c(F)c2)c(=O)n(-c2ccc(F)cc2)c1=O` [No. 34, N-(3-fluoro-4-((2-(1-(2-(4-methylpiperazin-1-yl)ethyl)-1H-pyrazol-4-yl)pyridin-4-yl)oxy)phenyl)-3-(4-fluorophenyl)-1-isopropyl-2,4-dioxo-1,2,3,4-tetrahydropyrimidin-5-carboxamide] here?
A: The IC50 was 10 to 100 nM.

Q: With `Cc1nn(C)cc1-c1cc(Oc2ccc(NC(=O)c3cn(C(C)C)c(=O)n(-c4ccc(F)cc4)c3=O)cc2F)ccn1` [No. 35, N-(4-((2-(1,3-dimethyl-1H-pyrazol-4-yl)pyridin-4-yl)oxy)-3-fluorophenyl)-3-(4-fluorophenyl)-1-isopropyl-2,4-dioxo-1,2,3,4-tetrahydropyrimidin-5-carboxamide] as the compound, how does the IC50 [1] read?
A: The IC50 was 10 to 100 nM.

Q: With `CC(C)n1cc(C(=O)Nc2ccc(Oc3ccncc3-c3cnn(C)c3)cc2)c(=O)n(-c2ccc(F)cc2)c1=O` [No. 36, 3-(4-fluorophenyl)-1-isopropyl-N-(4-((3-(1-methyl-1H-pyrazol-4-yl)pyridin-4-yl)oxy)phenyl)-2,4-dioxo-1,2,3,4-tetrahydropyrimidin-5-carboxamide] as the compound, how does the IC50 [1] read?
A: Its IC50 is 10 to 100 nM.

Q: How did the IC50 [1] turn out when `CCn1cc(C(=O)Nc2ccc(Oc3ccncc3-c3cnn(C)c3)cc2)c(=O)n(-c2ccc(F)cc2)c1=O` [No. 52, 3-(4-fluorophenyl)-1-ethyl-N-(4-((3-(1-methyl-1H-pyrazol-4-yl)pyridin-4-yl)oxy)phenyl)-2,4-dioxo-1,2,3,4-tetrahydropyrimidin-5-carboxamide] was run?
A: The IC50 was 10 to 100 nM.

Q: For `Cn1cc(-c2cnccc2Oc2ccc(NC(=O)c3cn(C)c(=O)n(-c4ccc(F)cc4)c3=O)cc2)cn1` [No. 53, 3-(4-fluorophenyl)-1-methyl-N-(4-((3-(1-methyl-1H-pyrazol-4-yl)pyridin-4-yl)oxy)phenyl)-2,4-dioxo-1,2,3,4-tetrahydropyrimidin-5-carboxamide], which IC50 [1] is on record?
A: The IC50 was over 100 nM.

Q: `Cn1cc(-c2cnccc2Oc2ccc(NC(=O)c3cn(CC4CCOCC4)c(=O)n(-c4ccc(F)cc4)c3=O)cc2)cn1` [No. 54, 3-(4-fluorophenyl)-N-(4-((3-(1-methyl-1H-pyrazol-4-yl)pyridin-4-yl)oxy)phenyl)-2,4-dioxo-1-((tetrahydro-2H-pyran-4-yl)methyl)-1,2,3,4-tetrahydropyrimidin-5-carboxamide] was tested. Which IC50 [1] did it give?
A: The IC50 was 10 to 100 nM.

Q: `COc1cc(NC(=O)c2cn(C(C)C)c(=O)n(-c3ccc(F)cc3)c2=O)ccc1Oc1ccnc(-c2cnn(C)c2)c1` [No. 58, 3-(4-fluorophenyl)-1-isopropyl-N-(3-methoxy-4-((2-(1-methyl-1H-pyrazol-4-yl)pyridin-4-yl)oxy)phenyl)-2,4-dioxo-1,2,3,4-tetrahydropyrimidin-5-carboxamide] was tested. Which IC50 [2] did it give?
A: The IC50 was over 100 nM.
